The conditions of series [1]: aqueous solution (cocaine); labile esters (heroin, 6-AM); cited from earlier work.
The conditions of series [2]: tetrahydrate soluble in hot water; cited from earlier work.
Series [3] in a line: Stability of BZE in matrices over pH. The series is classed as physicochemical. Particulars: most matrices, broad range of pH values. From the text:
Based on the above discussion, the stabilization of parent cocaine in a matrix such as oral fluid, which contains esterases possibly derived from crevicular fluid, is challenging unless appropriate buffering at a pH where parent cocaine is stable is employed.

The conditions of series [4]: two collection devices, cited from earlier work.
For series [5] the following is noted: oral fluid, over 14 days, cited from earlier work.
A short description of a further series: pH of greatest stability. Particulars: parent THC by itself.
A short description of series [6]: Stability of parent THC spiked into neat human oral fluid, with or without the reagent component. In kind it is physicochemical.

Like-named read-outs stand apart in the source and are kept apart here.

For `CC(=O)Oc1ccc2c3c1O[C@H]1[C@@H](OC(C)=O)C=C[C@H]4[C@@H](C2)N(C)CC[C@@]341` [heroin, diacetylmorphine], in series [1], the “pH of greatest stability / stabilization” value is approximately 5.0.

In the case of `CN1[C@H]2CC[C@@H]1[C@@H](C(=O)O)[C@@H](OC(=O)c1ccccc1)C2` [BZE, benzoylecgonine], the “water solubility” value in series [2] is given as “considerable water solubility”. Besides, the stability entry in series [3] is “stable”.

Turning to `COC(=O)[C@H]1[C@@H](OC(=O)c2ccccc2)C[C@@H]2CC[C@H]1N2C` [cocaine], the “pH of greatest stability / stabilization” value in series [1] is approximately 5. The figures for the “cocaine degraded to BZE” value in series [4] (within 48 hours) and in series [4] (within 72 hours) were 26% and 41%, respectively.

Turning to `CCCCCc1cc(O)c2c(c1)OC(C)(C)[C@@H]1CCC(C)=C[C@@H]21` [THC, Δ^9-tetrahydrocannabinol], the “losses of THC” value is given as 20% in series [5] (in the dark at room temperature) and “greater than 50%” in series [5] (under fluorescent lights). The “pH at which most stable” value in the series “pH of greatest stability” is approximately 7.5. In addition, the “loss of THC” value in series [6] is “substantial loss”.

These data come from patent publication US11647993B2, “Oral fluid collector” (Research Triangle Institute, priority 2017, dated 2023).
